Patent US11192888B2, “Antibacterial compounds” (priority 2017, dated 2021)
Like-named read-outs stand apart in the source and are kept apart here.

Experiments:
[1] = system: Enterococcus faecium NCTC 12204; experiment: microbe, parasite or virus in culture; settings: NCTC12204
[2] = system: Corynebacterium urealyticum NCTC 12011; experiment: microbe, parasite or virus in culture; settings: NCTC12011
[3] = system: Clostridium difficile strains (21 clinical, 7 reference); experiment: microbe, parasite or virus in culture; settings: Clostridioides difficile
[4] = system: Corynebacterium jeikeium NCTC 11914; experiment: microbe, parasite or virus in culture; settings: NCTC11914
[5] = system: Corynebacterium striatium NCTC 764; experiment: microbe, parasite or virus in culture; settings: NCTC764
[6] = system: Staphylococcus aureus ATCC 29213; experiment: microbe, parasite or virus in culture; settings: ATCC29213
[7] = system: Enterococcus faecalis ATCC 29212; experiment: microbe, parasite or virus in culture; settings: ATCC29212
[8] = system: Clostridium difficile strains (21 clinical, 7 reference)
[9] = system: Lactobacillus rhamnosus ATCC 53103; experiment: microbe, parasite or virus in culture; settings: Lacticaseibacillus rhamnosus, ATCC53103
[10] = system: C. difficile ATCC 43255 (aka VPI 10463; ribotype 087); experiment: Mouse model of C. difficile-associated disease; assay type: in vivo, C57BL/6 mice
[11] = system: Bacteroides fragilis ATCC 25285; experiment: microbe, parasite or virus in culture; settings: ATCC25285
[12] = system: Clostridium innocuum DSM 1286; experiment: microbe, parasite or virus in culture; settings: DSM1286
[13] = system: Bifidobacterium bifidum ATCC 11863; experiment: microbe, parasite or virus in culture; settings: ATCC11863
[14] = system: Clostridium ramosum DSM 1402; experiment: microbe, parasite or virus in culture; settings: Thomasclavelia ramosa, DSM1402
[15] = system: Bifidobacterium breve ATCC 15700; experiment: microbe, parasite or virus in culture; settings: ATCC15700
[16] = system: Propionibacterium acnes ATCC 6919; experiment: microbe, parasite or virus in culture; settings: Cutibacterium acnes, ATCC6919
[17] = system: Clostridium sordellii ATCC 9714; experiment: CLSI MIC, representative gut bacteria; assay type: cell-based; settings: Paraclostridium sordellii, ATCC9714, read-out: MIC
Description: (§1) Comparative in vitro bacterial susceptibility to compounds 3, 9 and 10, vancomycin and metronidazole was determined using methods according to the Clinical and Laboratory Standard Institute (CLSI) approved guidelines (M7-A10, M11-A7 or M45-A2) for anaerobic and aerobic organisms.

[18] = system: Clostridium difficile ATCC 43255; experiment: CLSI MIC, representative gut bacteria; assay type: cell-based; settings: Clostridioides difficile, ATCC43255; Clostridium difficile ATCC 43255; read-out: MIC
Description: as §1

[19] = system: Clostridium perfringens NCTC 8237; experiment: microbe, parasite or virus in culture
[20] = system: Actinomyces viscosus DSM 43327; experiment: microbe, parasite or virus in culture; settings: DSM43327

CN[C@H](CC(C)C)C(=O)N[C@H]1C(=O)N[C@@H](CC(N)=O)C(=O)N[C@H]2C(=O)N[C@H]3C(=O)N[C@H](C(=O)N[C@H](C(=O)O)c4cc(O)cc(O)c4-c4cc3ccc4O)[C@H](O)c3ccc(c(Cl)c3)Oc3cc2cc(c3O[C@@H]2O[C@H](CO)[C@@H](O)[C@H](O)[C@H]2O[C@H]2C[C@](C)(N)[C@H](O)[C@H](C)O2)Oc2ccc(cc2Cl)[C@H]1O [Vancomycin, reference compound]
survived to the end of the study: survival to the end of the study at day-21 post-infection ([10]; 10 mg/kg)
1 µg/mL: MIC [2] | MIC [4] | MIC [6]
0.5 µg/mL: MIC [3] | MIC50 [3] | MIC90 [3] | MIC ([3]; ATCC9689) | MIC ([3]; ATCC13366) | MIC ([3]; ATCC43255) | MIC ([3]; ATCC700057) | MIC ([3]; BAA1875) | MIC ([3]; read-out: MIC40) | MIC [5] | MIC50 ([8]; 28 C. difficile strains) | MIC90 ([8]; 28 C. difficile strains) | MIC ([8]; C. difficile strain 630 (ribotype 012)) | MIC ([8]; C. difficile strain BI1-FDX^R) | MIC ([8]; C. difficile strain Clin. 1) | MIC ([8]; C. difficile strain Clin. 2) | MIC ([8]; C. difficile strain Clin. 3) | MIC ([8]; C. difficile strain Clin. 6) | MIC ([8]; C. difficile strain Clin. 7) | MIC ([8]; C. difficile strain Clin. 8) | MIC ([8]; C. difficile strain Clin. 9) | MIC ([8]; C. difficile strain Clin. 10) | MIC ([8]; C. difficile strain Clin. 11) | MIC ([8]; C. difficile strain Clin. 12) | MIC ([8]; C. difficile strain Clin. 13) | MIC ([8]; C. difficile strain Clin. 14) | MIC ([8]; C. difficile strain Clin. 15) | MIC ([8]; C. difficile strain Clin. 16) | MIC ([8]; C. difficile strain Clin. 18) | MIC ([8]; C. difficile strain Clin. 20) | MIC ([8]; C. difficile strain Clin. 21) | MIC ([8]; C. difficile strain Clin. 22) | MIC ([8]; C. difficile strain Clin. 23) | MIC ([8]; C. difficile strain Clin. 24)
504.00 h: Mean survival ([10]; 10 mg/kg oral BD for 5 days)
2 µg/mL: MIC [7]
> 64 µg/mL: MIC [1] | MIC [9]

Cc1ncc([N+](=O)[O-])n1CCO [Metronidazole]
0.5 µg/mL: MIC [11] | MIC [12] | MIC [18]
2 µg/mL: MIC [13] | MIC [20]
4 µg/mL: MIC [14] | MIC [15]
> 64 µg/mL: MIC [16]
1 µg/mL: MIC [17] | MIC [19]
